Experimental data taken from article PMC12640937, “Integrating drug effects on individual cardiac ionic currents and cardiac action potentials to understand nonclinical translation to clinical ECG changes” (Frontiers in Pharmacology, 2025).
“And” between values parts separate entries of the source, which are not always exact repeats. Equal entries are not always repeated. Where two headings read alike, the source gives them in different places.

What was measured:
[1] = tested on: hERG1a and hERG1a/1b channels; conditions: cited from earlier work
[2] = tested on: adult human primary ventricular trabeculae; conditions: mexiletine at 3X concentration as tested here; ref Qu et al., 2017; cited from earlier work
[3] = tested on: INaL; design: method as in Wu et al., 2019; conditions: room temperature, ref Wu et al., 2019, cited from earlier work
[4] = tested on: adult human primary ventricular trabeculae; experiment: Action potential recordings from adult human ventricular trabeculae (sharp electrode)
[5] = tested on: Ba2+ current through CaV1.2 channels; design: method as in Ren et al., 2022; conditions: ∼37 °C; ref Ren et al., 2022; cited from earlier work
[6] = tested on: IBa or Ba2+ current through CaV1.2 channels; conditions: read-out: IBa (Ba2+ current through CaV1.2) IC50; prior study; 36 °C; ref Crumb et al., 2016; cited from earlier work
[7] = tested on: hERG; conditions: ref Crumb et al., 2016, cited from earlier work
[8] = tested on: INaL (NaV1.5 channels); conditions: prior study, ref Crumb et al., 2016, cited from earlier work; for IC50: read-out: INaL IC50, veratridine, 36 °C
[9] = calculated with MW and protein binding; ref Johannesen et al., 2016; cited from earlier work
[10] = biological target: hERG (Homo sapiens, UniProt Q12809); experiment: in vitro; conditions: HEK293 cells stably expressing the hERG1a subunit, pH 7.4
Chain of hERG (Homo sapiens, UniProt Q12809) (Q12809 whole entry): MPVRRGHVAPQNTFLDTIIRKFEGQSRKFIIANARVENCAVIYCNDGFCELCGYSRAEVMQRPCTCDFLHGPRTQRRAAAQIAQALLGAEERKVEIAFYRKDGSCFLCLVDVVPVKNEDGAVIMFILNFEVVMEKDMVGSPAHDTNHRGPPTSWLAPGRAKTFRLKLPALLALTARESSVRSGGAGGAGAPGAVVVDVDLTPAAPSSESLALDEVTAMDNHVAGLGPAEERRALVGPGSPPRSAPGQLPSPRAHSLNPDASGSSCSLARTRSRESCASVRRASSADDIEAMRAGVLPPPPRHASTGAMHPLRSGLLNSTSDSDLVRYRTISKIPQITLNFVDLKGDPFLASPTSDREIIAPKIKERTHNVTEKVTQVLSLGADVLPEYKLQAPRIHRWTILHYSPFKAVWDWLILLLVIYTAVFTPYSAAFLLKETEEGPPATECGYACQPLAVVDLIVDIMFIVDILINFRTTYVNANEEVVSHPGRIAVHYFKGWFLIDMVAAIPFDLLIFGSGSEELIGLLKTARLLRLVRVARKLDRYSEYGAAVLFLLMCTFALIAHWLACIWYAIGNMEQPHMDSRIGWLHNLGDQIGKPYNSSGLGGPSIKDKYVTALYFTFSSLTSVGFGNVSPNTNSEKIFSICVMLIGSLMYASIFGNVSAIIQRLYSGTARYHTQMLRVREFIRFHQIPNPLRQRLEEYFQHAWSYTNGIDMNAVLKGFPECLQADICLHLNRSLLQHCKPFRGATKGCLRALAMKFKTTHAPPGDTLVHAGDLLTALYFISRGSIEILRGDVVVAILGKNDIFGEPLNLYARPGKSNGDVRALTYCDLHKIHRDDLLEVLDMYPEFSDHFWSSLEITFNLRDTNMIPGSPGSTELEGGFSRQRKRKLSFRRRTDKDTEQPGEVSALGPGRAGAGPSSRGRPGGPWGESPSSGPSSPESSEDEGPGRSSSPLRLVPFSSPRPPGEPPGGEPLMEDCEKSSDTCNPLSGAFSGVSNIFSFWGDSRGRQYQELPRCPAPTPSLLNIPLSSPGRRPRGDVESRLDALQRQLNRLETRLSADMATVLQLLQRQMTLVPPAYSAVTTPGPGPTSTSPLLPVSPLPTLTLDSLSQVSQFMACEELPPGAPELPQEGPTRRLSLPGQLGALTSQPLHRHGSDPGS

[11] = tested on: clinical ECG; conditions: lidocaine or mexiletine co-administered with dofetilide; diltiazem with moxifloxacin; ref Johannesen et al., 2016; cited from earlier work
[12] = biological target: hERG current (HEK293 cells expressing the hERG1a subunit) (Homo sapiens, UniProt Q12809); experiment: cell-based
Chain of hERG current (HEK293 cells expressing the hERG1a subunit) (Q12809 whole entry): as above

[13] = used to calculate free Cmax; no reference given; cited from earlier work
[14] = diltiazem 3.84 then 38.4 µM or nifedipine 0.23 then 1 µM, alone

C=CCN1CC[C@]23c4c5ccc(O)c4O[C@H]2C(=O)CC[C@@]3(O)[C@H]1C5 [naloxone]
pharmacological difference between hERG1a and hERG1a/1b channels ([1]; ref Tran et al., 2020): no pharmacological differences

COc1ccccc1OCC(O)CN1CCN(CC(=O)Nc2c(C)cccc2C)CC1 (stereo not shown) [ranolazine]
AP height [2]: did not

CCN(CC)CC(=O)Nc1c(C)cccc1C [lidocaine]
IC50 ([3]; read-out: INaL IC50 obtained in ATX-II): 31.7 µM
IC50 ([3]; read-out: INaL IC50 obtained in veratridine): 395 µM

buprenorphine
pharmacological difference between hERG1a and hERG1a/1b channels [1]: no pharmacological differences

CCC(=O)C(CC(C)N(C)C)(c1ccccc1)c1ccccc1 (stereo not shown) [methadone]
pharmacological difference between hERG1a and hERG1a/1b channels [1]: no pharmacological differences

COC(=O)C1=C(C)NC(C)=C(C(=O)OC)C1c1ccccc1[N+](=O)[O-] [nifedipine]
AP triangulation [4, 14]: no AP triangulation

COc1ccc([C@@H]2Sc3ccccc3N(CCN(C)C)C(=O)[C@@H]2OC(C)=O)cc1 [diltiazem]
IC50 [5]: 0.8 µM
IC50 [6]: 0.112 µM
hERG current inhibition when 50% of CaV1.2 channels were blocked ([7]; prior study): no inhibition
AP triangulation [4, 14]: resulting in AP triangulation
INaL inhibition when 50% of CaV1.2 channels were blocked [8]: no inhibition
IC50 [8]: 24.5 µM

CN(CCOc1ccc(NS(C)(=O)=O)cc1)CCc1ccc(NS(C)(=O)=O)cc1 [dofetilide]
AP triangulation (APD90 minus APD30) ([4]; dofetilide 0.1 µM alone, 1 Hz): resulting in AP triangulation
AP triangulation ([4]; dofetilide in the presence of diltiazem or nifedipine): induced AP triangulation

O=C(NCC1CCCCN1)c1cc(OCC(F)(F)F)ccc1OCC(F)(F)F (stereo not shown) [flecainide]
AP height [2]: reduced AP height

O=C1CC[C@@]2(O)[C@H]3Cc4ccc(O)c5c4[C@@]2(CCN3CC2CC2)[C@H]1O5 [naltrexone]
pharmacological difference between hERG1a and hERG1a/1b channels ([1]; ref Tran et al., 2020): no pharmacological differences

Nc1nnc(-c2cccc(Cl)c2Cl)c(N)n1 [lamotrigine]
AP height [2]: reduced AP height

Cc1cccc(C)c1OCC(C)N (stereo not shown) [mexiletine]
free clinical Cmax [9]: 3.6 µM
inhibition at 10 µM [10]: ~20%
IC50 [6]: 38.2 µM
hERG current inhibition ([7]; 10 μM, highest concentration tested in prior study): ~10%
AP height [2]: reduced AP height
effect on hERG block-induced QTC and J-TpeakC prolongation [11]: shortened by co-administration
IC50 [8]: 9.3 µM and 9 µM
IC50 [12]: 55.6 µM
percent protein binding (PB) [13]: 55%
